Relative viability data for one cell line are collected here from the supplement of paper PMC10307832.

Common to all, as to assay: relative viability (nuclei count vs DMSO), 5 days (fraction); higher = more cells survive
Compound in assay [1]: CC1=C(CC(=O)O)c2cc(F)ccc2/C1=C\c1ccc([S+](C)[O-])cc1 [Sulindac] + Nc1ncn([C@H]2C[C@H](O)[C@@H](CO)O2)c(=O)n1 [Decitabine] (partner 2 µM)
A digest of the protocol:
(§1)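 The day after seeding in 1536-well plates, lung cancer cell lines were treated by pin tool with a single drug, or with a fixed anchor-drug dose together with five library-drug doses (not always all listed) in √10 steps. After 5 days, a combined fix-and-stain solution (final 0.05% Triton X-100, 1% formaldehyde, 1 ug/ml Hoechst) was added. Nuclei counted on 4× images gave relative viability as treated counts over vehicle counts, reported as the median of duplicate plates.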

Compound in assay [2]: O=c1[nH]cc(F)c(=O)[nH]1 [5-Fluorouracil] + CC(=O)Nc1cccc(-n2c(=O)n(C3CC3)c(=O)c3c(Nc4ccc(I)cc4F)n(C)c(=O)c(C)c32)c1 [Trametinib] (partner 0.02 µM)
The gist of the method: as §1

Compound in assay [3]: CC1=C(CC(=O)O)c2cc(F)ccc2/C1=C\c1ccc([S+](C)[O-])cc1 [Sulindac] + NC(=O)Nc1cc(-c2cccc(F)c2)sc1C(=O)N[C@H]1CCCNC1 [AZD7762] (partner 0.2 µM)
A digest of the protocol: as §1

Compound in assay [4]: CC1=C(CC(=O)O)c2cc(F)ccc2/C1=C\c1ccc([S+](C)[O-])cc1 [Sulindac] + Nc1nc2[nH]cc(CCc3ccc(C(=O)N[C@@H](CCC(=O)O)C(=O)O)cc3)c2c(=O)[nH]1 [Pemetrexed] (partner 0.2 µM)
A digest of the protocol: as §1

For SW 900, the relative viability in assay [1] (first compound 0.08 µM) is 0.449; in assay [1] (first compound 0.253 µM), 0.432; in assay [1] (first compound 8 µM), 0.489; in assay [2] (first compound 0.02 µM) it was 0.747; in assay [2] (first compound 0.2 µM) it was 0.735; in assay [2] (first compound 0.6325 µM), 0.59. Moreover, the relative viability in assay [2] (first compound 2 µM) turned out to be 0.558; in assay [3] (first compound 0.08 µM) it was 0.538; in assay [3] (first compound 0.253 µM), 0.677; in assay [3] (first compound 8 µM) it was 0.643; in assay [4] (first compound 0.08 µM), 0.532; in assay [4] (first compound 0.253 µM) it was 0.492. Besides, in assay [4] (first compound 8 µM), the relative viability turned out to be 0.453.
